Assays:
Test in all cases: relative viability (nuclei count vs DMSO), 5 days (fraction); higher = more cells survive
QS11 = compound: C1CC2=C(C1)C=C(C=C2)OC3=NC(=C4C(=N3)N(C=N4)CC5=CC=C(C=C5)C6=CC=CC=C6)N[C@@H](CC7=CC=CC=C7)CO [QS11]
Method in brief: (§1)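 Lung cancer cell lines were seeded into 1536-well plates, kept overnight at 37 °C and pinned with five library-drug doses (not always all listed) spaced by √10. After 5 days, nuclei were Hoechst-stained, imaged at 4× and counted with MetaXpress. Viability is treated-well nuclei over vehicle-well nuclei, taken as a median across plates. Plates needed control CV below 25% and at least one doubling.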

AZ628 = compound: CC1=C(C=C(C=C1)NC(=O)C2=CC(=CC=C2)C(C)(C)C#N)NC3=CC4=C(C=C3)N=CN(C4=O)C [AZ628]
Method in brief: as §1

Darinaparsin = compound: C[As](C)SC[C@H](NC(=O)CC[C@H](N)C(=O)O)C(=O)NCC(=O)O [Darinaparsin]
Method in brief: as §1

QS11 + Alpelisib = compound: C1CC2=C(C1)C=C(C=C2)OC3=NC(=C4C(=N3)N(C=N4)CC5=CC=C(C=C5)C6=CC=CC=C6)N[C@@H](CC7=CC=CC=C7)CO [QS11] + Cc1nc(NC(=O)N2CCC[C@H]2C(N)=O)sc1-c1ccnc(C(C)(C)C(F)(F)F)c1 [Alpelisib] (partner 2 µM)
Method in brief: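 Nuclei were stained with Hoechst during a one-step fixation (final 0.05% Triton X-100, 1% formaldehyde, 1 ug/ml Hoechst) carried out 5 days after dosing, then counted on 4× images. The cells, lung cancer lines in 1536-well plates, had been dosed by pin tool the day after seeding with one drug alone or a fixed anchor-drug dose plus five library-drug doses (not always all listed) in √10 steps. Relative viability is the nuclei count in treated wells divided by that in vehicle wells, and each value is the median of duplicate plates.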

Cell Line | relative viability (QS11; 0.08 µM) | relative viability (QS11; 0.253 µM) | relative viability (QS11; 0.8 µM) | relative viability (QS11; 2.53 µM) | relative viability (QS11; 8 µM) | relative viability (AZ628; 0.08 µM) | relative viability (AZ628; 0.253 µM) | relative viability (AZ628; 0.8 µM) | relative viability (AZ628; 2.53 µM) | relative viability (AZ628; 8 µM) | relative viability (Darinaparsin; 0.08 µM) | relative viability (Darinaparsin; 0.8 µM) | relative viability (Darinaparsin; 2.53 µM) | relative viability (Darinaparsin; 8 µM) | relative viability (QS11 + Alpelisib; first compound 0.08 µM) | relative viability (QS11 + Alpelisib; first compound 0.253 µM) | relative viability (QS11 + Alpelisib; first compound 0.8 µM) | relative viability (QS11 + Alpelisib; first compound 2.53 µM) | relative viability (QS11 + Alpelisib; first compound 8 µM)
NCI-H727 | 0.989 | 0.975 | 0.867 | 0.935 | 0.752 | 0.777 | 0.531 | 0.389 | 0.543 | 0.294 | 0.895 | 0.884 | 0.986 | 1.04 | 0.509 | 0.99 | 0.593 | 0.54 | 0.325
NCI-H1666 | 0.935 | 0.984 | 0.776 | 0.793 | 0.667 | 0.965 | 0.826 | 0.885 | 0.813 | 0.901 | 1.04 | 0.948 | 1.24 | 1.05 | 0.917 | 1.03 | 0.708 | 0.587 | 0.382
Calu-6 | 1.11 | 1.06 | 0.941 | 1.1 | 1.07 | 1.02 | 0.899 | 0.754 | 0.784 | 0.207 | 1.2 | 0.99 | 1.01 | 1.14 | 0.98 | 0.974 | 0.856 | 0.99 | 0.884
COR-L23 | 1.02 | 1.01 | 0.827 | 0.918 | 0.648 | 1.08 | 1.1 | 0.957 | 1.12 | 0.614 | 1.11 | 0.995 | 0.96 | 1.37 | 0.828 | 0.665 | 0.698 | 0.589 | 0.617
NCI-H460 | 1.05 | 1.02 | 0.777 | 0.96 | 0.796 | 0.977 | 0.996 | 0.908 | 1.04 | 0.673 | 1.1 | 1 | 0.997 | 1.35 | 0.515 | 0.498 | 0.554 | 0.3 | 0.0919
SK-MES-1 | 1.12 | 0.952 | 0.941 | 0.95 | 0.946 | 0.945 | 0.99 | 0.923 | 0.92 | 0.595 | 1.15 | 1.05 | 0.948 | 1.26 | 0.997 | 0.919 | 0.918 | 0.886 | 0.849
LC-2-ad | 1.01 | 1.05 | 0.808 | 0.972 | 0.955 | 1.07 | 0.911 | 0.88 | 0.928 | 0.768 | 1.06 | 0.996 | 1.01 | 1.2 | 0.93 | 0.853 | 0.698 | 1.08 | 0.779
BEN | 0.821 | 1.03 | 1.13 | 1.1 | 1.25 | 1.11 | 0.838 | 0.899 | 1.01 | 0.843 | 1.08 | 1.03 | 0.92 | 1.3 | 0.772 | 1.22 | 1.12 | 1.01 | 1.29
NCI-H1299 | 1.07 | 1.04 | 0.91 | 0.94 | 0.797 | 1.1 | 1.09 | 1.04 | 1.2 | 0.84 | 1.07 | 1.01 | 0.978 | 1.12 | 1.09 | 1.1 | 1.02 | 0.962 | 1.05
NCI-H1651 | 0.906 | 1.01 | 0.857 | 0.988 | 0.899 | 0.986 | 1.01 | 0.986 | 1.08 | 1.12 | 1.15 | 1 | 0.942 | 1.18 | 1.06 | 1.1 | 0.822 | 0.896 | 0.713
EKVX | 0.973 | 0.922 | 0.602 | 0.907 | 1.06 | 1.05 | 0.959 | 1 | 0.939 | 0.774 | 1.04 | 0.922 | 0.943 | 1.04 | 0.895 | 0.821 |  | 0.86 | 0.906
COR-L 105 | 0.895 | 0.89 | 0.822 | 0.892 | 0.831 | 1.01 | 1.14 | 0.951 | 0.928 | 0.592 | 0.996 | 0.986 | 0.781 | 1.03 | 0.931 | 0.946 | 1.13 | 0.745 | 0.771
HCC-15 | 1.02 | 1.06 | 0.693 | 0.971 | 0.915 | 1.02 | 0.924 | 0.858 | 0.86 | 0.56 | 1.18 | 1 | 0.992 | 1.14 | 0.749 | 1.01 |  | 0.936 | 0.731
SK-LU-1 | 0.968 | 1.07 | 0.984 | 0.993 | 0.97 | 0.653 | 0.901 | 0.931 | 0.892 | 0.769 | 1.27 | 0.876 | 0.821 | 1.22 | 1.14 | 0.934 | 0.917 | 0.774 | 0.712
LCLC-103H | 1.01 | 1 | 0.749 | 0.988 | 1.05 | 0.99 | 0.891 | 1.07 | 0.998 | 0.903 | 1.15 | 0.923 | 0.976 | 1.15 | 1.07 | 0.979 | 0.797 | 0.938 | 0.974
RERF-LC-KJ | 0.98 | 0.954 | 0.912 | 0.974 | 0.981 | 1.01 | 0.981 | 0.883 | 0.965 | 0.887 | 1.05 | 1.07 | 0.944 | 1.12 | 0.851 | 0.779 | 0.928 | 0.675 | 0.852
NCI-H2087 | 1.02 | 0.937 | 0.854 | 0.874 | 0.898 | 0.92 | 0.671 | 0.729 | 0.814 | 0.336 | 1.14 | 1.14 | 1.01 | 1.13 | 1.18 | 1.02 | 0.95 | 0.743 | 0.858

Source: the supplement of paper PMC10307832
